# Source: article PMC2810227, “3-O-Methylfunicone, a Selective Inhibitor of Mammalian Y-Family DNA Polymerases from an Australian Sea Salt Fungal Strain” (Marine Drugs, 2009)
# Where two headings read alike, the source gives them in different places.
# Molecular target: T1, human pol κ (Homo sapiens, UniProt Q9UBT6)
# T1 construct: A truncated form of pol κ (residues 1–560) with 6 x His-tags attached at the C-terminus; 6xHis (C); made in house; host or cells: E. coli
# T1 sequence (Q9UBT6 1-560): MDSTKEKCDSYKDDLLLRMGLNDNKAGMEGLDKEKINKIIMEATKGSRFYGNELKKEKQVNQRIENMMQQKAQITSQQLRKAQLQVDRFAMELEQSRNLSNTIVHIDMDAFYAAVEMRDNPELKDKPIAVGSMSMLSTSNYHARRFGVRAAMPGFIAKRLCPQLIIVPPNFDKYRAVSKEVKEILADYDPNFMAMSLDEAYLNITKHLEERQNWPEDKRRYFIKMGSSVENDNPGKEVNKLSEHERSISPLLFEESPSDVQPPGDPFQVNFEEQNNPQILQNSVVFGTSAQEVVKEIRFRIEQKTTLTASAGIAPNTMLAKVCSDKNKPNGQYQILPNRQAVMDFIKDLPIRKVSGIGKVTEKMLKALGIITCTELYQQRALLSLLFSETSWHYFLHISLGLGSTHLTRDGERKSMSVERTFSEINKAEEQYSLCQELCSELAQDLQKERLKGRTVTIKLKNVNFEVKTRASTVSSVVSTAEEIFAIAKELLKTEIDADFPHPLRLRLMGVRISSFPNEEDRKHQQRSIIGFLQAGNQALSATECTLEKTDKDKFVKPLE
# Assay: Kinetic analysis of the inhibition of human pol κ
# Type: biochemical
# Conditions: for Ki: Dixon plot
# Description: Next, to elucidate the mechanism of inhibition, the extent of inhibition as a function of DNA template-primer or dNTP substrate concentrations was studied (Figure 4). In kinetic analysis, poly(dA)/oligo(dT)18 and dTTP were used as the DNA template-primer and dNTP substrate, respectively. […] When activated DNA and four dNTP substrates were used as the DNA template-primer and dNTP substrate, respectively, the inhibition of human pol κ by compound 1 was competitive with the DNA template-primer and non-competitive with the dNTP substrate (data not shown).
# Figure 4. Kinetic analysis of the inhibition of human pol κ by compound 1. (A) Human pol κ activity was measured in the absence (closed square) or presence of 4 μM (closed circle), 8 μM (closed triangle) or 12 μM (closed diamond) compound 1 using the indicated concentrations of the DNA template-primer. (B) Human pol κ activity was assayed with the indicated concentrations of the substrate dTTP in the presence of 4 μM (open circle), 8 μM (open triangle) or 12 μM (open diamond) or in the absence (open square) of compound 1. […] Amount of human pol κ in the assay mixture was 0.05 units.
# The reaction mixtures for pol α, pol β, plant pols and prokaryotic pols were described previously; those for pol γ, and pols δ and ɛ were as described by Umeda et al. and Ogawa et al., respectively. The reaction mixtures for pols η, ι and κ were the same as for pol α, and the reaction mixture for pol λ was the same as for pol β. For pols, poly(dA)/oligo(dT)18 (A/T = 2/1) and dTTP were used as the DNA template-primer and nucleotide (i.e., dNTP) substrate, respectively. For HIV-1 reverse transcriptase, poly(rA)/oligo(dT)18 (A/T = 2/1) and dTTP were used as the DNA template-primer and nucleotide substrate, respectively. For TdT, oligo(dT)18 (3′-OH) and dTTP were used as the DNA primer and nucleotide substrate, respectively.
# The compounds were dissolved in distilled dimethyl sulfoxide (DMSO) at various concentrations and sonicated for 30 sec. Aliquots of 4 μl sonicated samples were mixed with 16 μl of each enzyme (final amount 0.05 units) in 50 mM Tris-HCl (pH7.5) containing 1 mM dithiothreitol, 50% glycerol and 0.1 mM EDTA, and kept at 0 °C for 10 min. These inhibitor-enzyme mixtures (8 μl) were added to 16 μl of each of the enzyme standard reaction mixtures (final concentration of 50 mM Tris-HCl [pH 7.5], 1 mM dithiothreitol, 1 mM MgCl2, 15% glycerol, 10 μM poly(dA)/oligo(dT)18 and 10 μM [^3H]-dTTP), and incubation was carried out at 37 °C for 60 min, except for Taq pol, which was incubated at 74 °C for 60 min. Activity without the inhibitor was considered 100%, and the remaining activity at each concentration of the inhibitor was determined relative to this value. One unit of pol activity was defined as the amount of enzyme that catalyzed the incorporation of 1 nmol dNTP (i.e., dTTP) into synthetic DNA template-primers in 60 min at 37 °C under the normal reaction conditions for each enzyme.
smiles,measurement,setting,value
"C/C=C/c1occ(C(=O)c2c(OC)cc(OC)cc2C(=O)OC)c(=O)c1OC [compound 1, 3-O-methylfunicone]","increase in Michaelis constant (Km), DNA template-primer",4 μM compound,295%
same,"increase in Michaelis constant (Km), DNA template-primer",8 μM compound,467%
same,"increase in Michaelis constant (Km), DNA template-primer",12 μM compound,812%
same,Vmax for the dNTP substrate,"12 μM compound, decreased from 41.7 without compound",11.1 pmol/h
same,Ki,read-out: inhibition constant (Ki) for the DNA template-primer,1300 nM
same,Ki,read-out: inhibition constant (Ki) for the dTTP substrate,4400 nM
same,mode of inhibition with the DNA template-primer,"activated DNA as template-primer, data not shown",competitive
same,mode of inhibition with the dNTP substrate,"dTTP, double reciprocal plots",non-competitive
same,mode of inhibition with the dNTP substrate,"four dNTP substrates, data not shown",non-competitive
same,mode of inhibition with the DNA template-primer,"poly(dA)/oligo(dT)18, double reciprocal plots",competitive
same,"apparent maximum velocity (Vmax), DNA template-primer","unchanged in the presence of 4, 8 and 12 μM compound",52.6 pmol/h
